# Data: PMC10827914 (Cellular and Molecular Life Sciences: CMLS, 2024)
# Where a SMILES comes first, the peptide text is derived from it. Bridges are numbered along the chain shown (N, C = ends). Where no end group is shown, it is not given here.
# Biological target: His-tagged recombinant human CD13 (rCD13) (human) (UniProt P15144)
# Test: not given
# Conditions: not given
# His-tagged recombinant human CD13 (rCD13) (human), sequence (P15144 33-967): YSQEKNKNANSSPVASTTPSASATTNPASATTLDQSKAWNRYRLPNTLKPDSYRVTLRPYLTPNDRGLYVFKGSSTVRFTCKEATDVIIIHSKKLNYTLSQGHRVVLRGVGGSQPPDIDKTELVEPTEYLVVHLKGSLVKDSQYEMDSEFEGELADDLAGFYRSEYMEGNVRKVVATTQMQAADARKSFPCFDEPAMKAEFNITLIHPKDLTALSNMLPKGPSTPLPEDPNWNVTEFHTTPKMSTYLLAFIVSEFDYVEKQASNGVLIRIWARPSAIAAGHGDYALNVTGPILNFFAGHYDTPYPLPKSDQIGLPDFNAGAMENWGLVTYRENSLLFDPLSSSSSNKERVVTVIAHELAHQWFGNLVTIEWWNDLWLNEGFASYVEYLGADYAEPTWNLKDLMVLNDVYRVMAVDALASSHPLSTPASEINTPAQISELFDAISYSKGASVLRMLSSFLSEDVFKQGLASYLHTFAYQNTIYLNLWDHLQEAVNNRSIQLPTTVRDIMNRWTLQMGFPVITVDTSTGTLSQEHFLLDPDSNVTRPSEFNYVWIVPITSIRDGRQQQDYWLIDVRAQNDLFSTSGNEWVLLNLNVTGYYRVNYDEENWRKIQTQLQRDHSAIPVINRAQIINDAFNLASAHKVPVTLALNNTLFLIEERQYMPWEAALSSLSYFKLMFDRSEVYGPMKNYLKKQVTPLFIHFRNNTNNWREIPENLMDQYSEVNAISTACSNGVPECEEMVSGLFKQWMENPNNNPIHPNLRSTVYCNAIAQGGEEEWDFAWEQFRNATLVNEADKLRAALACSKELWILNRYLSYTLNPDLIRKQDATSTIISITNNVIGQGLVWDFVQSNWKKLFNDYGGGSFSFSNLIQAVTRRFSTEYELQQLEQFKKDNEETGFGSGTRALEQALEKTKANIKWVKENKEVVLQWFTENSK
Molecule,"inhibition of rCD13 enzymatic activity, against … (fold loss of activity)",IC50 of inhibition of rCD13 enzymatic activity [µM],"inhibition of rCD13 enzymatic activity, against … (fold decrease)"
GCARRYCSN [… with deletion of Val-1],200,,
CARRYC (disulfide 1-6 (inferred)) [small disulfide-bridged peptide CARRYC],,51,
VGCARRYC [… with deletion of Ser-9 and Asn-10],,,3
CARRYCSN [… with deletion of Val-1 and Gly-2],270,,

# Biological target: T1, recombinant human CD13 (rCD13) (Homo sapiens, UniProt P15144)
# T1 construct: consisting of the CD13 extracellular domain expressed in HEK-293 cells; His-tag; purchased Sino Biological 10051-H08H; host or cells: HEK-293 cells
# T1 sequence (P15144 33-967 limits assumed): as the sequence (P15144 33-967) above
# Test: rCD13 enzyme inhibition assay, L-alanine-p-nitroanilide substrate
# Assay type: biochemical
# Conditions: negative control peptide; rCD13 0.2 µg/ml, L-alanine-p-nitroanilide, Supplementary Fig. S2A
# Procedure: (§1) Recombinant CD13 (rCD13) enzyme activity and inhibition assays were performed as described previously using L-alanine-p-nitroanilide or L-alanine 7-amido-4-methylcoumarin as substrates in 60 mM Tris–HCl, pH 7.4, or 60 mM potassium phosphate buffer, pH 7.4. Mixtures containing peptides at various concentrations, rCD13 (0.2 µg/mL), and L-alanine-p-nitroanilide substrate (0.5 mM) in 60 mM potassium phosphate buffer, pH 7.4 (total volume, 0.1 ml) were prepared and left to react for 30 min at 37 °C. The products were then analyzed using a plate reader (iMark Microplate Absorbance Reader; Bio-Rad). Alternatively, the assay was performed using 0.1 mM L-alanine 7-amido-4-methylcoumarin in 60 mM Tris–HCl, pH 7.4, as a substrate. Fluorescence intensity of methylcoumarin was measured on an Infinite 200 PRO plate reader (Tecan) using the following settings: excitation wavelength: 341 nm; emission wavelength: 441 nm; excitation bandwidth: 9; emission bandwidth: 20 nm; gain: 109 manual; number of flashes: 25; integration time: 20 µs; lag time: 0 µs; settle time: 0 ms.
# (§2) The IC50 of each inhibitor was calculated by non-linear regression analysis of inhibition data using GraphPad Prism Software (GraphPad Software, Version 9.00, San Diego, CA). Steady-state enzyme kinetic analyses were performed using various concentrations of L-alanine-p-nitroanilide (0–1.5 mM) and VGCARRYCS peptide (0–900 nM). The initial velocities (Vo) were calculated from the slopes of the first 5 min of reaction. The enzyme inhibitory constant (Ki) was calculated using the competitive enzyme inhibition model in GraphPad Prism Software.
# A) VGCGRRYCSN and CSGIGSSGGC (control) peptides, at various concentrations, were mixed with rCD13 (0.2 µg/mL), L-alanine-p-nitroanilide substrate (0.5 mM), in 60 mM potassium phosphate buffer, pH 7.4. The mixtures were left to react for 30 min at 37° C; then the absorbance at 405 nm of each mixture was measured using an ELISA plate reader (Bio-Rad). The IC50 of each inhibitor was calculated by non-linear regression analysis of inhibition data using the GraphPad Prism Software (GraphPad Software, Version 9.00, San Diego, CA). The result of one experiment performed in duplicate is shown (mean ± SEM).
row,Molecule,Inhibition of rCD13 enzymatic activity (in words)
1,"CSGIGSGGC [negative control peptide, reference compound]",no inhibition

# Same assay, conditions: rCD13 0.2 μg/mL, L-alanine-p-nitroanilide 0.5 mM, 60 mM potassium phosphate buffer pH 7.4, 30 min, 37 °C, absorbance; mean ± SEM of n independent experiments; read-out: IC50: peptide concentration that inhibits 50% of rCD13 enzymatic activity
row,Molecule,IC50 [µM]
1,C[C@H](N)C(=O)NCC(=O)N[C@H]1CSSC[C@@H](C(=O)N[C@@H](CO)C(=O)N[C@@H](CC(N)=O)C(=O)O)NC(=O)[C@H](Cc2ccc(O)cc2)NC(=O)[C@H](CCCNC(=N)N)NC(=O)[C@H](CCCNC(=N)N)NC(=O)CNC1=O [AGCGRRYCSN] (H-AGCGRRYCSN-OH; disulfide 3-8),11.4 ± 4.5
2,CC(C)[C@H](N)C(=O)N[C@@H](C)C(=O)N[C@H]1CSSC[C@@H](C(=O)N[C@@H](CO)C(=O)N[C@@H](CC(N)=O)C(=O)O)NC(=O)[C@H](Cc2ccc(O)cc2)NC(=O)[C@H](CCCNC(=N)N)NC(=O)[C@H](CCCNC(=N)N)NC(=O)CNC1=O [VACGRRYCSN] (H-VACGRRYCSN-OH; disulfide 3-8),4.5 ± 5.1
3,VGAGRRYASN [VGAGRRYASN],6.2 ± 4.8
4,CC(C)[C@H](N)C(=O)NCC(=O)N[C@H]1CSSC[C@@H](C(=O)N[C@@H](CO)C(=O)N[C@@H](CC(N)=O)C(=O)O)NC(=O)[C@H](Cc2ccc(O)cc2)NC(=O)[C@H](CCCNC(=N)N)NC(=O)[C@H](CCCNC(=N)N)NC(=O)[C@H](C)NC1=O [VGCARRYCSN] (H-VGCARRYCSN-OH; disulfide 3-8),0.2 ± 0.06

# Further lines, results first:
row,IC50 [µM],Molecule
1,2.01 ± 1.1,CC(C)[C@H](N)C(=O)NCC(=O)N[C@H]1CSSC[C@@H](C(=O)N[C@@H](CO)C(=O)N[C@@H](CC(N)=O)C(=O)O)NC(=O)[C@H](Cc2ccc(O)cc2)NC(=O)[C@H](CCCNC(=N)N)NC(=O)[C@H](CCCNC(=N)N)NC(=O)CNC1=O [VGCGRRYCSN] (H-VGCGRRYCSN-OH; disulfide 3-8)
2,17.6 ± 4.6,CC(C)[C@H](N)C(=O)NCC(=O)N[C@H]1CSSC[C@@H](C(=O)N[C@@H](CO)C(=O)N[C@@H](CC(N)=O)C(=O)O)NC(=O)[C@H](Cc2ccc(O)cc2)NC(=O)[C@H](C)NC(=O)[C@H](CCCNC(=N)N)NC(=O)CNC1=O [VGCGRAYCSN] (H-VGCGRAYCSN-OH; disulfide 3-8)
3,8.9 ± 5.5,CC(C)[C@H](N)C(=O)NCC(=O)N[C@H]1CSSC[C@@H](C(=O)N[C@@H](CO)C(=O)N[C@@H](CC(N)=O)C(=O)O)NC(=O)[C@H](C)NC(=O)[C@H](CCCNC(=N)N)NC(=O)[C@H](CCCNC(=N)N)NC(=O)CNC1=O [VGCGRRACSN] (H-VGCGRRACSN-OH; disulfide 3-8)
4,12.1 ± 8.4,CC(C)[C@H](N)C(=O)NCC(=O)N[C@H]1CSSC[C@@H](C(=O)N[C@@H](CO)C(=O)N[C@@H](CC(N)=O)C(=O)O)NC(=O)[C@H](Cc2ccc(O)cc2)NC(=O)[C@H](CCCNC(=N)N)NC(=O)[C@H](C)NC(=O)CNC1=O [VGCGARYCSN] (H-VGCGARYCSN-OH; disulfide 3-8)

# Biological target: T1, recombinant human CD13 (rCD13)
# Test: rCD13 enzyme inhibition assay, L-alanine 7-amido-4-methylcoumarin substrate
# Assay type: biochemical
# Conditions: 0.1 mM L-alanine 7-amido-4-methylcoumarin, 60 mM Tris-HCl pH 7.4, fluorescence; mean ± SEM of n independent experiments; read-out: IC50: peptide concentration that inhibits 50% of rCD13 enzymatic activity
# Procedure: as §1, §2
# Fig. 2 G4 recognizes soluble forms of CD13, with higher affinity and selectivity than bestatin, and the membrane forms expressed on the surface of HUVEC cells. A Inhibitory effects of G4 and bestatin on the enzymatic activities of different aminopeptidases (rCD13, APA, and APB). Various amounts of G4 or bestatin were incubated with rCD13 (0.2 µg/mL in 60 mM Tris–HCl pH 7.4), APA (0.2 µg/mL in 60 mM Tris–HCl pH 7.4, 50 mM calcium chloride, 200 mM sodium chloride) or APB (0.2 µg/mL in 60 mM Tris–HCl pH 7.4, 100 mM potassium chloride) and the corresponding substrates at 0.1 mM (L-alanine-7-amido-4-methylcoumarin for rCD13, L-glutamic acid γ-(7-amido-4-methylcoumarin) for APA, and L-arginine-7-amido-4-methylcoumarin for APB). The mixtures were incubated for 30 min at 37 °C, and the cleavage of each substrate was monitored by measuring the fluorescence of methylcoumarin (λex 341 nm; λem 441 nm) using an Infinite 200 PRO plate reader (Tecan). Three independent experiments were performed for each enzyme. The results of one representative experiment for each enzyme are shown (mean ± SEM, duplicates). B Inhibitory effects of G4 and bestatin on soluble CD13 immunocaptured from human serum (sCD13) using microtiter plates coated with anti-CD13 mAb WM15. The microtiter plate was filled with a solution of mAb WM15 (5 μg/ml in DPBS) and incubated overnight at 4 °C. The plate was then washed with DPBS, blocked with 3% bovine serum albumin (BSA) in DPBS, and filled with human serum containing soluble CD13 (diluted 1:2 with DPBS containing 2% BSA). After washing with DPBS, mixtures of G4 or bestatin (0–100 µM in 60 mM Tris–HCl, pH 7.4) and L-alanine p-nitroanilide hydrochloride substrate (4.5 mM in 60 mM Tris–HCl, pH 7.4) were added and left to incubate at 37 °C for 2 h. Substrate cleavage by sCD13 dissociated from mAb WM15 was then monitored by measuring the absorbance at 405 nm in each well using a plate reader (Bio-Rad). The results of one experiment performed in triplicate are shown (mean ± SEM). C Effect of G4 on the binding of the anti-CD13 mAb WM15 to HUVEC. HUVEC were seeded at a density of 2 × 10^5 cells in 100 µL DPBS supplemented with 5% normal human serum (NHS) and incubated with a mixture of G4 peptide (0, 0.1, 1, and 10 µM) and mAb WM15 (0 or 0.13 nM) as indicated. […]
row,Molecule,IC50 [µM]
1,C[C@@H]1NC(=O)[C@@H](NC(=O)CN)CSSC[C@@H](C(=O)N[C@@H](CO)C(=O)N[C@@H](CC(N)=O)C(=O)O)NC(=O)[C@H](Cc2ccc(O)cc2)NC(=O)[C@H](CCCNC(=N)N)NC(=O)[C@H](CCCNC(=N)N)NC1=O [GCARRYCSN] (H-GCARRYCSN-OH; disulfide 2-7),40.1 ± 1.9
2,CC(=O)N[C@H](C(=O)NCC(=O)N[C@H]1CSSC[C@@H](C(=O)N[C@@H](CO)C(=O)N[C@@H](CC(N)=O)C(=O)O)NC(=O)[C@H](Cc2ccc(O)cc2)NC(=O)[C@H](CCCNC(=N)N)NC(=O)[C@H](CCCNC(=N)N)NC(=O)[C@H](C)NC1=O)C(C)C [ac-VGCARRYCSN] (Ac-VGCARRYCSN-OH; disulfide 3-8; C-terminus assumed),> 1000
3,C[C@@H]1NC(=O)[C@@H](NC(=O)CN)CSSC[C@@H](C(=O)N[C@@H](CO)C(=O)O)NC(=O)[C@H](Cc2ccc(O)cc2)NC(=O)[C@H](CCCNC(=N)N)NC(=O)[C@H](CCCNC(=N)N)NC1=O [GCARRYCS] (H-GCARRYCS-OH; disulfide 2-7),69.5 ± 0.1
4,CC(C)[C@H](N)C(=O)NCC(=O)N[C@H]1CSSC[C@@H](C(=O)O)NC(=O)[C@H](Cc2ccc(O)cc2)NC(=O)[C@H](CCCNC(=N)N)NC(=O)[C@H](CCCNC(=N)N)NC(=O)[C@H](C)NC1=O [VGCARRYC] (H-VGCARRYC-OH; disulfide 3-8),0.23 ± 0.01
5,CC(C)[C@H](N)C(=O)NCC(=O)N[C@H]1CSSC[C@@H](C(=O)N[C@@H](CO)C(=O)N[C@@H](CC(N)=O)C(=O)O)NC(=O)[C@H](Cc2ccc(O)cc2)NC(=O)[C@H](CCCNC(=N)N)NC(=O)[C@H](CCCNC(=N)N)NC(=O)[C@H](C)NC1=O [VGCARRYCSN] (H-VGCARRYCSN-OH; disulfide 3-8),0.19 ± 0.01
